Measurements reported in patent US11939241B2, “Stable percarboxylic acid compositions and uses thereof” (Ecolab USA Inc., priority 2012, dated 2024).

Assay: Quantitation of peroxide gases of decomposition (U-tube manometer)
Type: physicochemical
Method: The volume of peroxides' gases of decomposition was measured using a water filled U-tube fitted with a minimal volume tubing connected to a non-coring syringe needle. The manometer made of pyrex glass was filled partially with deionized water colored with FD&C blue dye #1 and 1,000 ppm of non-ionic surfactant. The dye allows for increased visibility of the water columns and the surfactant lowers the surface tension allowing for unbroken water columns. The manometer was also fitted with a metric ruler to allow the convenient determination of the column heights difference. Given that 1 atmosphere of pressure corresponds with […] of water column height and the limit of resolution on the column and ruler combination is about 1 mm, the signal/noise ratio approximates […].
Procedure. Four head space vials were double rinsed with the sample solution before adding 5 mL of sample solution (via Repeat Pipettor) and sealing the vials with a silicone backed PTFE septum with aluminum cap. Immediately after sealing the vials the temperature and barometric pressure were recorded. A set of water blank replicates of the same volume were also included. The sealed vials were stored for 24-48 hours at ambient temperatures inside a dark cabinet to allow for optimal gas pressure generation.
Calculations. By calibration of the U-tube water column displacement using a precision gas syringe, the water column height to gas volume ratio was calculated. Using the assumption of peroxide decay to molecular oxygen (ignoring CO2 or CO gases etc.), these values were converted to gas volumes and the loss of available oxygen in the sample was thereby calculated using the formulae below: 2 moles of RCO3H→2 moles of RCO2H+1 mole of O2(22.4 L of O2 at standard temperature and pressure) And 2 moles of H2O2→2 moles of H2O+1 mole of O2(22.4 L of O2 at standard temperature and pressure)

Net O2 Lost (5 mL sample, sealed vial, 24-48 hours, ambient temperature): 0.017 g | Net Gas Gen. (5 mL sample, sealed vial, 24-48 hours, ambient temperature, dark): 11.9 mL | Rel. Loss O2 (24-48 hours, ambient temperature): 0.02% w/w, % | Initial H2O2 (initial): 50.00 w/w, % | Initial POAA (initial): 0.00 w/w, % | Initial O2 (initial available oxygen): 23.53 w/w, %
Substance: Hydrogen peroxide [F]
